Source: patent publication US4163801A, “Treatment of animals with 2,6-bis(2-hydroxybenzyl)phenols to eradicate trematodes” (ICI Australia Limited, priority 1976, dated 1979)

Experiments:
[1] = test system: sheep liver fluke (Fasciola hepatica); test: Flukicidal activity in sheep infected with sheep liver fluke: faecal egg count and post mortem adult fluke count after single dose (Table II); format: in vivo; settings: for Post Mortem Results: No of adult fluke: sheep liver; for Faecal Egg Count: sheep
Protocol: Compositions suitable for use as experimental aqueous oral drenches were prepared in the following general manner. A mixture of the required amount of active ingredient was mixed with 40 ml of an aqueous 0.25% w/w solution of "Lubrol E" ("Lubrol E" is a Registered Trade Mark for an octylphenol ethoxylate). The mixture was ball-milled for 30 minutes and the resultant suspension was used as an aqueous drench.
Compositions suitable for use as experimental injectable solutions were prepared by dissolving the chemical in propylene glycol and adjusting the concentration to 10% w/v active ingredient.
Compositions prepared by the methods of Examples 21 and 22 were used as a single dose to test sheep infected with sheep liver fluke (Fasciola hepatica). The number of liver fluke eggs in the faeces was measured at the time of treatment and at selected intervals up to 14 days after treatment. The sheep were killed on day 14 and the number of adult fluke in the liver counted. The amount and structure of active ingredient in each composition and the results of treatment of a sheep with that composition are given in the Table II below. The compositions were administered either by oral drench (oral) or by sub-cutaneous injection (s/c).

[2] = test system: immature fluke; test: Effectiveness against immature fluke (Table II footnotes); format: in vivo, Fasciola hepatica; settings: oral route

Oc1c(Br)cc(F)cc1Cc1cc(Cl)cc(Cc2cc(F)cc(Br)c2O)c1O [Compound 2, 2,6-bis(3-bromo-5-fluoro-2-hydroxybenzyl)-4-chlorophenol]
Post Mortem Results: No of adult fluke ([1]; 3.1 mg/kg oral, killed day 14): 0 | Post Mortem Results: No of adult fluke ([1]; 6.5 mg/kg oral, killed day 14): 0 | Post Mortem Results: No of adult fluke ([1]; 12.5 mg/kg oral, killed day 14): 0 | Post Mortem Results: No of adult fluke ([1]; 12.5 mg/kg s/c, killed day 14): 0 | Faecal Egg Count ([1]; 3.1 mg/kg oral, day 7): 20 Eggs per g faeces | Faecal Egg Count ([1]; 3.1 mg/kg oral, day 14): 0 Eggs per g faeces | Faecal Egg Count ([1]; 6.5 mg/kg oral, day 7): 40 Eggs per g faeces | Faecal Egg Count ([1]; 6.5 mg/kg oral, day 14): 0 Eggs per g faeces | Faecal Egg Count ([1]; 12.5 mg/kg oral, day 2): 130 Eggs per g faeces | Faecal Egg Count ([1]; 12.5 mg/kg oral, day 7): 0 Eggs per g faeces | Faecal Egg Count ([1]; 12.5 mg/kg oral, day 13): 0 Eggs per g faeces | Faecal Egg Count ([1]; 12.5 mg/kg s/c, day 3): 3800 Eggs per g faeces | Faecal Egg Count ([1]; 12.5 mg/kg s/c, day 7): 0 Eggs per g faeces | Faecal Egg Count ([1]; 12.5 mg/kg s/c, day 14): 0 Eggs per g faeces

Oc1c(Br)cc(Cl)cc1Cc1cc(F)cc(Cc2cc(Cl)cc(Br)c2O)c1O [Compound 4, 2,6-bis(3-bromo-5-chloro-2-hydroxybenzyl)-4-fluorophenol]
Post Mortem Results: No of adult fluke ([1]; 1.0 mg/kg oral, killed day 14): 0 | Post Mortem Results: No of adult fluke ([1]; 2.0 mg/kg s/c, killed day 14): 0 | Post Mortem Results: No of adult fluke ([1]; 3.1 mg/kg oral, killed day 14): 0 | Post Mortem Results: No of adult fluke ([1]; 6.3 mg/kg oral, killed day 14): 0 | Post Mortem Results: No of adult fluke ([1]; 12.5 mg/kg oral, Day 29): 0 | Faecal Egg Count ([1]; 2.0 mg/kg s/c, day 7): 20 Eggs per g faeces | Faecal Egg Count ([1]; 2.0 mg/kg s/c, day 14): 0 Eggs per g faeces | Faecal Egg Count ([1]; 3.1 mg/kg oral, day 2): 0 Eggs per g faeces | Faecal Egg Count ([1]; 3.1 mg/kg oral, day 7): 10 Eggs per g faeces | Faecal Egg Count ([1]; 3.1 mg/kg oral, day 14): 0 Eggs per g faeces | Faecal Egg Count ([1]; 6.3 mg/kg oral, day 2): 70 Eggs per g faeces | Faecal Egg Count ([1]; 6.3 mg/kg oral, day 7): 0 Eggs per g faeces | Faecal Egg Count ([1]; 12.5 mg/kg oral, day 2): 2520 Eggs per g faeces | Faecal Egg Count ([1]; 12.5 mg/kg oral, day 7): 200 Eggs per g faeces | Faecal Egg Count ([1]; 12.5 mg/kg oral, day 14): 0 Eggs per g faeces | effective against immature fluke ([2]; 5.0 mg/kg): 49% | effective against immature fluke ([2]; 7.5 mg/kg): 85% | effective against immature fluke ([2]; 10 mg/kg): 98%

O=[N+]([O-])c1cc(Cl)cc(Cc2cc(Cl)cc(Cc3cc(Cl)cc([N+](=O)[O-])c3O)c2O)c1O [Compound 9, 2,6-Bis(5-chloro-2-hydroxy-3-nitrobenzyl)-4-chlorophenol]
Post Mortem Results: No of adult fluke ([1]; 12.5 mg/kg s/c, killed day 14): 3 | Faecal Egg Count ([1]; 12.5 mg/kg s/c, day 7): 0 Eggs per g faeces | Faecal Egg Count ([1]; 12.5 mg/kg s/c, day 14): 10 Eggs per g faeces

Oc1c(Br)cc(Br)cc1Cc1cc(Cl)cc(Cc2cc(Br)cc(Br)c2O)c1O [Compound 11]
Post Mortem Results: No of adult fluke ([1]; 12.5 mg/kg oral, killed day 14): 12 | Faecal Egg Count ([1]; 12.5 mg/kg oral, day 7): 130 Eggs per g faeces | Faecal Egg Count ([1]; 12.5 mg/kg oral, day 14): 40 Eggs per g faeces

Oc1c(Br)cc(Cl)cc1Cc1cc(Cl)cc(Cc2cc(Cl)cc(Br)c2O)c1O [Compound 12]
Post Mortem Results: No of adult fluke ([1]; 4.0 mg/kg oral, killed day 14): 0 | Post Mortem Results: No of adult fluke ([1]; 12.5 mg/kg oral, killed day 14): 0 | Faecal Egg Count ([1]; 4.0 mg/kg oral, day 7): 0 Eggs per g faeces | Faecal Egg Count ([1]; 4.0 mg/kg oral, day 14): 0 Eggs per g faeces | Faecal Egg Count ([1]; 12.5 mg/kg oral, day 7): 40 Eggs per g faeces | Faecal Egg Count ([1]; 12.5 mg/kg oral, day 14): 0 Eggs per g faeces

Oc1c(Br)cc(Br)cc1Cc1cc(F)cc(Cc2cc(Br)cc(Br)c2O)c1O [Compound 14]
Post Mortem Results: No of adult fluke ([1]; 4.0 mg/kg oral, killed day 14): 1 | Post Mortem Results: No of adult fluke ([1]; 12.5 mg/kg oral, killed day 14): 0 | Faecal Egg Count ([1]; 4.0 mg/kg oral, day 7): 0 Eggs per g faeces | Faecal Egg Count ([1]; 4.0 mg/kg oral, day 14): 0 Eggs per g faeces | Faecal Egg Count ([1]; 12.5 mg/kg oral, day 7): 60 Eggs per g faeces | Faecal Egg Count ([1]; 12.5 mg/kg oral, day 14): 0 Eggs per g faeces

Oc1c(Cl)cc(F)cc1Cc1cc(Cl)cc(Cc2cc(F)cc(Cl)c2O)c1O [Compound 17]
Post Mortem Results: No of adult fluke ([1]; 12.5 mg/kg oral, killed day 14): 2 | Faecal Egg Count ([1]; 12.5 mg/kg oral, day 7): 150 Eggs per g faeces | Faecal Egg Count ([1]; 12.5 mg/kg oral, day 14): 20 Eggs per g faeces | Faecal Egg Count ([1]; 12.5 mg/kg oral, day 18): 20 Eggs per g faeces

Oc1c(Cl)cc(Cl)cc1Cc1cc(F)cc(Cc2cc(Cl)cc(Cl)c2O)c1O [Compound 18, 2,6-bis(3,5-dichloro-2-hydroxybenzyl)-4-fluorophenol]
Post Mortem Results: No of adult fluke ([1]; 12.5 mg/kg oral, killed day 14): 0 | Faecal Egg Count ([1]; 12.5 mg/kg oral, day 7): 0 Eggs per g faeces | Faecal Egg Count ([1]; 12.5 mg/kg oral, day 14): 0 Eggs per g faeces

Oc1c(Br)cc(F)cc1Cc1cc(F)cc(Cc2cc(F)cc(Br)c2O)c1O [Compound 22]
Post Mortem Results: No of adult fluke ([1]; 6.3 mg/kg oral, killed day 14): 0 | Post Mortem Results: No of adult fluke ([1]; 12.5 mg/kg oral, killed day 14): 0 | Faecal Egg Count ([1]; 6.3 mg/kg oral, day 7): 0 Eggs per g faeces | Faecal Egg Count ([1]; 6.3 mg/kg oral, day 14): 0 Eggs per g faeces | Faecal Egg Count ([1]; 12.5 mg/kg oral, day 7): 1340 Eggs per g faeces | Faecal Egg Count ([1]; 12.5 mg/kg oral, day 14): 0 Eggs per g faeces

Oc1c(I)cc(F)cc1Cc1cc(Cl)cc(Cc2cc(F)cc(I)c2O)c1O [Compound 24]
Post Mortem Results: No of adult fluke ([1]; 12.5 mg/kg oral, killed day 14): 0 | Faecal Egg Count ([1]; 12.5 mg/kg oral, day 7): 20 Eggs per g faeces | Faecal Egg Count ([1]; 12.5 mg/kg oral, day 14): 0 Eggs per g faeces

Oc1c(Br)cc(F)cc1Cc1cc(Br)cc(Cc2cc(F)cc(Br)c2O)c1O [Compound 25]
Post Mortem Results: No of adult fluke ([1]; 12.5 mg/kg oral, killed day 14): 0 | Faecal Egg Count ([1]; 12.5 mg/kg oral, day 7): 0 Eggs per g faeces | Faecal Egg Count ([1]; 12.5 mg/kg oral, day 14): 0 Eggs per g faeces

Oc1c(I)cc(Cl)cc1Cc1cc(F)cc(Cc2cc(Cl)cc(I)c2O)c1O [Compound 29]
Post Mortem Results: No of adult fluke ([1]; 6.3 mg/kg oral, killed day 14): 0 | Post Mortem Results: No of adult fluke ([1]; 12.5 mg/kg oral, killed day 14): 0 | Faecal Egg Count ([1]; 6.3 mg/kg oral, day 7): 0 Eggs per g faeces | Faecal Egg Count ([1]; 6.3 mg/kg oral, day 14): 0 Eggs per g faeces | Faecal Egg Count ([1]; 12.5 mg/kg oral, day 7): 10 Eggs per g faeces | Faecal Egg Count ([1]; 12.5 mg/kg oral, day 14): 0 Eggs per g faeces | effective against immature fluke ([2]; 10 mg/kg): 81%

CC(c1cc(Cl)cc(Cl)c1O)c1cc(F)cc(Cc2cc(Cl)cc(Br)c2O)c1O (stereo not drawn) [Compound 30, 2-(3-Bromo-5chloro-2-hydroxybenzyl)-6-[1-(3,5-dichloro-2-hydroxyphenyl)ethyl]-4-fluorophenol]
Post Mortem Results: No of adult fluke ([1]; 12.5 mg/kg oral, killed day 14): 0 | Faecal Egg Count ([1]; 12.5 mg/kg oral, day 7): 0 Eggs per g faeces | Faecal Egg Count ([1]; 12.5 mg/kg oral, day 14): 0 Eggs per g faeces

CC(=O)Oc1c(Cc2cc(Cl)cc(Br)c2O)cc(F)cc1Cc1cc(Cl)cc(Br)c1O [Compound 31]
Post Mortem Results: No of adult fluke ([1]; 12.5 mg/kg oral, killed day 14): 0 | Faecal Egg Count ([1]; 12.5 mg/kg oral, day 7): 220 Eggs per g faeces | Faecal Egg Count ([1]; 12.5 mg/kg oral, day 14): 10 Eggs per g faeces

Oc1c(I)cc(F)cc1Cc1cc(F)cc(Cc2cc(F)cc(I)c2O)c1O [Compound 38]
Post Mortem Results: No of adult fluke ([1]; 6.3 mg/kg oral, killed day 14): 0 | Faecal Egg Count ([1]; 4.0 mg/kg oral, day 7): 50 Eggs per g faeces | Faecal Egg Count ([1]; 4.0 mg/kg oral, day 14): 80 Eggs per g faeces | Faecal Egg Count ([1]; 6.3 mg/kg oral, day 7): 190 Eggs per g faeces | Faecal Egg Count ([1]; 6.3 mg/kg oral, day 14): 0 Eggs per g faeces

CC(c1cc(F)cc(Br)c1O)c1cc(Cl)cc(Cc2cc(F)cc(Br)c2O)c1O (stereo not drawn) [Compound 39]
Post Mortem Results: No of adult fluke ([1]; 3.0 mg/kg oral, killed day 14): 0 | Post Mortem Results: No of adult fluke ([1]; 6.0 mg/kg oral, killed day 14): 0 | Faecal Egg Count ([1]; 3.0 mg/kg oral, day 7): 210 Eggs per g faeces | Faecal Egg Count ([1]; 3.0 mg/kg oral, day 14): 0 Eggs per g faeces | Faecal Egg Count ([1]; 6.0 mg/kg oral, day 7): 60 Eggs per g faeces | Faecal Egg Count ([1]; 6.0 mg/kg oral, day 14): 0 Eggs per g faeces

CC(c1cc(F)cc(Br)c1O)c1cc(Cl)cc(C(C)c2cc(F)cc(Br)c2O)c1O (stereo not drawn) [Compound 40, 2,6-Bis[1-(3-bromo-5-fluoro-2-hydroxyphenyl)ethyl]-4-chlorophenol]
Post Mortem Results: No of adult fluke ([1]; 12.5 mg/kg oral, killed day 14): 11 | Faecal Egg Count ([1]; 12.5 mg/kg oral, day 7): 0 Eggs per g faeces | Faecal Egg Count ([1]; 12.5 mg/kg oral, day 14): 0 Eggs per g faeces

CC(c1cc(Cl)cc(Cl)c1O)c1cc(F)cc(Cc2cc(F)cc(Br)c2O)c1O (stereo not drawn) [Compound 46]
Post Mortem Results: No of adult fluke ([1]; 12.5 mg/kg oral, killed day 14): 0 | Faecal Egg Count ([1]; 12.5 mg/kg oral, day 7): 0 Eggs per g faeces | Faecal Egg Count ([1]; 12.5 mg/kg oral, day 14): 0 Eggs per g faeces
